Test results from patent publication US12121565B2, “Methods of treatment of specific cancers with NLRP3 inhibitors and anti-PD1/PD-L1 antibodies” (Duke University, priority 2019, dated 2024).

Legend:
[1] = tested on: OT-1 CD8+ T cell:BRAFV600E OVA melanoma coculture; assay: Coculture of OT-1 CD8+ T cells with OVA-expressing melanoma cells followed by Western blot; type: cell-based, mouse; details: increasing concentrations of NLRP3 inhibitor
Method: OT-1 CD8 cell activation was performed by incubating isolated splenocytes of OT-1 transgenic mice with IL-2 (100 U/ml) and SIINFEKL peptide (1 μg/ml, New England Peptide, BP10-915) for 3 days followed by magnetic bead CD8 purification according to the manufacturer's instructions (Miltenyi biotec, 130-104-075). Activated OT-1 CD8 cells were incubated with Braf^V600EPten^−/−-OVA cells and treated with anti-PD1 ab (1 μg/ml) for 72 hrs at a tumor cell:CD8^+ T cell ratio of 1:5. In separate experiments, Braf^V600EPten^−/− cells were treated with increasing concentrations of Dacarbazine (10 μmol-400 μmol).
Tumor tissue or cells were homogenized in NP40 lysis buffer (Sigma-Aldrich) supplemented with complete protease inhibitor and phosphatase inhibitor (Roche). Cells were lysed in Laemmli sample buffer after treatment and subjected to SDS-polyacrylamide gel electrophoresis. After transferring onto PVDF membranes (Bio-Rad), monoclonal and polyclonal primary antibodies and appropriate HRP-conjugated secondary antibodies were utilized for blotting. […]

[2] = tested on: syngeneic BRAFV600E PTEN−/− melanomas; assay: Syngeneic transplant tumor study: tumor growth, flow cytometry, Western blot, ELISA, qRT-PCR; type: in vivo, mouse
Method: B6.Cg-Braf^tm1MmcmPten^tm1Hwu Tg(Tyr-cre/ERT2 H-2^b)13Bos/BosJ transgenic mice were subdermally injected with 4-Hydroxytomoxifen (4-HT) (Sigma, H6278-50MG CCF, 38.75 μg/mouse) to induce primary melanoma development at the base of the tail. Mice were randomly assigned to treatment cohorts once tumor volumes reached 64 mm^3 (19, 30, 50). Depending on the experiment, mice were treated with the following agents: CXCR2 inhibitor (AZD5069, AstraZeneca) at 100 mg/kg per os (po) twice daily, NLRP3 inhibitor (MCC950) 10 mg/kg i.p every other day, anti-PD1 ab (BioXCell) or rat IgG2a isotype control (BioXCell) at 200 μg by i.p. injection every 3 days, Dacarbazine (50 mg/kg or 75 mg/kg, Sigma-Aldrich, D2390) by i.p. injection once every other day. Melanoma growth was monitored by orthogonal caliper measurements every 3 days.
Braf^V600EPten^−/−, Braf^V600EPten^−/−-NTC, Braf^V600EPten^−/−-Wnt5a^KD, Braf^V600EPten^−/−-CXCL5^KD, Braf^V600EPten^−/−-PDL1^KD, and Braf^V600EPten^−/−-NLRP3^KD cell lines (0.5×10^5-1×10^5 cells) were implanted by subcutaneous injection into the base of the tail of syngeneic C57BL/6 mice. Tumor growth was monitored by caliper measurement every 3 days and treatment was initiated when tumor volumes reached 64 mm^3. Tumor volume was calculated according to the formula: cm^3=[(length (cm)×(width (cm))^2]/2.
One million cells were stained with 1 μg per million cells of each fluorochrome conjugated antibodies or commercially available dyes according to the standard protocols and analyzed using a FACSCanto II or LSRII (Becton Dickinson). Cells were stained with Fc receptor blocking antibodies followed by a live/dead discriminator (CellTrace Violet, ThermoFisher, C34571), then by conjugated antibodies for 30 min at 4° C. Cell number was calculated by hemocytometer. Flow cytometry data was analyzed using Flowjo software v10.3.
Tumor tissue or cells were homogenized in NP40 lysis buffer (Sigma-Aldrich) supplemented with complete protease inhibitor and phosphatase inhibitor (Roche). Cells were lysed in Laemmli sample buffer after treatment and subjected to SDS-polyacrylamide gel electrophoresis. After transferring onto PVDF membranes (Bio-Rad), monoclonal and polyclonal primary antibodies and appropriate HRP-conjugated secondary antibodies were utilized for blotting. For the immunoprecipitation assays, cells were lysed with TBS buffer (50 mM Tris-HCl (pH 7.4), 150 mM NaCl) containing 0.5% Triton X-100, EDTA-free protease inhibitor cocktail and phosphatase inhibitor cocktail, precleared with protein A/G beads, and then incubated with 1 μg of appropriate antibodies or isotype control IgG on a rotator overnight at 4° C. then incubated with protein A/G-agarose at 4° C. for 1 hour. After 5 washes with TBS buffer, immunoprecipitated complexes were eluted in sample buffer by boiling and subjected to immunoblot analysis. Immunoblots were visualized by chemiluminescence substrate (ThermoFisher) and imaged by a ChemiDoc XRSplus system (BioRad). For the ASC polymerization assay, cells were lysed with TBS buffer containing 0.5% Triton X-100, EDTA-free protease inhibitor cocktail and phosphatase inhibitor cocktail. The lysates were centrifuged at 4,000 g at 4° C. for 15 min. For the detection of ASC oligomerization, the Triton-insoluble pellets were washed twice with TBS buffer and then resuspended in 500 μl TBS buffer. The resuspended pellets were crosslinked for 30 min at room temperature with 2 mM Disuccinimidyl suberate (DSS) (Thermo Fisher Scientific, 21655) and then centrifuged for 15 min at 6,000 g. The pellets were dissolved in SDS sample buffer.
Total RNA was isolated by RNeasy Plus Mini Kit (Qiagen, 74134). RNA (1000 ng) was used in cDNA Synthesis (iScript Reverse Transcription Supermix, BioRad, 1708841). Data analysis utilized the PrimePCR Analysis Software (BioRad). […]

[3] = combined anti-PD-1 Ab and NLRP3 inhibitor

`CC(C)(O)c1coc(S(=O)(=O)NC(=O)Nc2c3c(cc4c2CCC4)CCC3)c1` [MCC950, N-[[(1,2,3,5,6,7-hexahydro-s-indacen-4-yl)amino]carbonyl]-4-(1-hydroxy-1-methylethyl)-2-furansulfonamide] was tested, and the “CD8+ T cell-mediated induction of HSP70 release” value [1] was “block”, the “PMN-MDSC recruitment in response to anti-PD-1 Ab therapy” value ([2]; NLRP3 inhibition combined with anti-PD-1 Ab (200 μg i.p. every 3 days)) was “diminished” and the “levels of tumor-infiltrating CD8+ T cells” value ([2]; NLRP3 inhibitor MCC950 combined with anti-PD-1 Ab) was “enhanced”. For the same compound, the “tumor progression in vivo” value ([2]; NLRP3 inhibitor MCC950 combined with anti-PD-1 Ab, beyond what was observed with anti-PD-1 Ab monotherapy) was “suppressed”, the “HSP70 release (plasma ELISA)” value ([2]; combined anti-PD-1 Ab and NLRP3 inhibition) was “suppressed” and the “Cxcl5 levels (tumor qRT-PCR)” value [2, 3] was “suppressed”. The “Wnt5a expression (whole-tissue Western blot)” value [2, 3] was “suppressed”, the “caspase-1 cleavage (whole-tissue Western blot)” value [2, 3] was “suppressed” and the “expression of the cytolytic T cell marker Gzmb (tumor qRT-PCR)” value [2, 3] was “enhanced”.
